Reference: ChEMBL document CHEMBL1938361, “Elaborate ligand-based modeling and subsequent synthetic exploration unveil new nanomolar Ca2+/calmodulin-dependent protein kinase II inhibitory leads” (Bioorg Med Chem, 2012)

Molecular target: Calcium/calmodulin-dependent protein kinase type II subunit delta (Homo sapiens, UniProt Q13557)
Experiment: Inhibition of human recombinant CAMK2delta using tetramethylbenzidine as substrate by spectrophotometry analysis

Calcium/calmodulin-dependent protein kinase type II subunit delta, sequence (Q13557 whole entry): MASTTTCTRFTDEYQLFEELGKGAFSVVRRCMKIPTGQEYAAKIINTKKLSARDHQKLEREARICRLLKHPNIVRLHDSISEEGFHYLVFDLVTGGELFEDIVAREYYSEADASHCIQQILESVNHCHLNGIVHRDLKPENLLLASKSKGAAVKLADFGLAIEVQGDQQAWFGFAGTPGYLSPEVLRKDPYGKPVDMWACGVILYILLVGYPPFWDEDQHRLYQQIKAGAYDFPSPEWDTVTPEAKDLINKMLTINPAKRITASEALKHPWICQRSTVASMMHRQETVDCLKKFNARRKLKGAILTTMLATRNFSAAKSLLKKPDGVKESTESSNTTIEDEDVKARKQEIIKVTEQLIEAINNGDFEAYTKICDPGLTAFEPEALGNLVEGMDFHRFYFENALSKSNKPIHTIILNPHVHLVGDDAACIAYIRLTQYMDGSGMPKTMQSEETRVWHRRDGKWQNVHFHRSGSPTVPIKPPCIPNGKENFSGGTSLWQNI

Structure (SMILES): CN([C@@H](Cc1ccc(OS(=O)(=O)c2cccc3cnccc23)cc1)C(=O)N1CCN(c2ccccc2)CC1)S(=O)(=O)c1cccc2cnccc12
- IC50: 380 nM
